# Molecular target: T1, Solute carrier family 15 member 1 (Rattus norvegicus) (UniProt P51574)
# T1 sequence (whole entry): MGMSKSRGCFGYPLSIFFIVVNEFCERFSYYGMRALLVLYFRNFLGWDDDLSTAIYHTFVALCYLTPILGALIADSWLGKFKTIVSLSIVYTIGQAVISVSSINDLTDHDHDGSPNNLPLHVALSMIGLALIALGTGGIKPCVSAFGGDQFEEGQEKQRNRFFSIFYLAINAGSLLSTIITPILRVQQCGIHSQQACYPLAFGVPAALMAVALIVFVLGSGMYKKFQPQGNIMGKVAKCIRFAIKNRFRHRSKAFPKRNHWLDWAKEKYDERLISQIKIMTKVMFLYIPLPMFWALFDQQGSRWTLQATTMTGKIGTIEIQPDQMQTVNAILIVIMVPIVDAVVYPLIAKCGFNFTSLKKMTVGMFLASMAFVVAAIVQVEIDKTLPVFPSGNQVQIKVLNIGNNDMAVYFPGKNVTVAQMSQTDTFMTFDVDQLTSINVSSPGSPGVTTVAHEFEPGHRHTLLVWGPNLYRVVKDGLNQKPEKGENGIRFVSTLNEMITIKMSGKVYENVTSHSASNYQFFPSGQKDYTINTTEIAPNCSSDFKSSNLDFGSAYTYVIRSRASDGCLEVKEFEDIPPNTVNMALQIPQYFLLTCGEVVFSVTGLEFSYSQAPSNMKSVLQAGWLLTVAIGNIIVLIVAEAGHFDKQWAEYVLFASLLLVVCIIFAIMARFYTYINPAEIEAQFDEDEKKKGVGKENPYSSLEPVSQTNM
# Assay: TP_TRANSPORTER: uptake in Xenopus laevis oocytes
# Assay type: functional, cell-based
# Settings: Oocyte
row,Structure (SMILES),Activity
1,CC1=C(C(=O)O)N2C(=O)[C@@H](NC(=O)[C@H](N)c3ccccc3)[C@H]2SC1,substrate [+]
2,C=CC1=C(C(=O)O)N2C(=O)[C@@H](NC(=O)/C(=N\OCC(=O)O)c3csc(N)n3)[C@H]2SC1,substrate [+]
3,CC1=C(C(=O)O)N2C(=O)[C@@H](NC(=O)[C@H](N)c3ccc(O)cc3)[C@H]2SC1,substrate [+]
